Laboratory results reported in patent US20190365673A1, “Immunomodulatory Compounds” (Lankenau Institute for Medical Research, priority 2016, published 2019).
Like-named read-outs stand apart in the source and are kept apart here.

Experiments:
WM3211 melanoma cells = assay: Cell viability assay (EZQuant), WM3211; assay type: cell-based; settings: Homo sapiens; AP alone, 72 h, WM3211, BRAF WT
Protocol: (§1) Cell proliferation assays were conducted in 96-well plates at 25-30% starting confluence to determine the effect of exposure to increasing concentrations of PLX4720 or AP with or without 1 mM DFMO for 72 hours. Cell viability was assessed using the EZQuant™ Cell Quantifying Kit (Alstem) in which WST-8 is reduced by the metabolic activity of live cells to formazan dye. […] The 72 hour IC50 values for AP were calculated using non-linear regression (sigmoidal dose response) of the plot of percentage inhibition versus the log of inhibitor concentration in GraphPad Prism (v5; GraphPad Software, Inc., La Jolla, Calif.).

WM88 melanoma cells = assay: Cell viability assay (EZQuant), WM88; assay type: cell-based; settings: Homo sapiens; AP alone, 72 h, WM88, BRAF V600E
Protocol: as §1

[1] = tested on: polyamine transport system (PTS); assay: Radiolabeled spermidine transport assay, human melanoma cell lines; assay type: cell-based; settings: ± SD
Protocol: Polyamine transport in tumor cells was evaluated essentially as described (Kramer, et al. (1993) J. Cell Physiol., 155(2):399-407; Nilsson, et al. (2005) Cancer Cell 7(5):433-444). Radioactive spermidine (Net-522 Spermidine Trihydrochloride, [Terminal Methylenes-^3H(n)]) from Perkin Elmer was used (specific activity: 16.6 Ci/mmol). Cells were plated in 96 well plates and grown to approximately 80% confluence. Half of the cells were treated with 1 mM DFMO for 40 hours. After repeated washing with PBS, ^3H-spermidine was added at 1 μM and incubated for 60 minutes at 37° C. Cells were then washed with cold PBS containing 50 μM spermidine and lysed in 0.1% SDS at 37° C. for 30 minutes with mixing. Cell lysates were then aliquoted for scintillation counting and for protein assay using a mini-BioRad assay. Results were expressed as CPM/g protein.

[2] = tested on: BRAF-mutant melanoma tumor; assay: BRAF-mutant melanoma tumor in mice treated with PLX4720; assay type: in vivo; settings: FIG. 11, co-treatment with PLX4720, begun when the tumor has regressed
Protocol: FIG. 11 provides a graph of tumor volume in mice over time after treatment with PLX4720 alone or PLX4720 with delayed administration of AP and DFMO.
In addition to the above, the efficacy of AP in vivo was also tested.

WM3743 melanoma cells = assay: Cell viability assay (EZQuant), WM3743; assay type: cell-based; settings: Homo sapiens; AP alone, 72 h, WM3743, BRAF WT
Protocol: as §1

[3] = tested on: BRAF^V600E YUMM1.7 melanoma cells; assay: Cell viability assay (EZQuant), YUMM1.7; assay type: cell-based, murine; settings: FIGS. 9A, 9B, 72 h
Protocol: FIG. 9A: Murine BRAF^V600E YUMM1.7 melanoma cells and BRAF^WT B16F10 melanoma cells were treated with increasing doses of AP. After 72 hours of culture, cell survival was determined via EZQuant™ Cell Quantifying assay. IC50 values were calculated by GraphPad Prism 6. FIG. 9B: Murine BRAF^V600E YUMM1.7 melanoma cells and BRAF^WT B16F10 melanoma cells were treated with increasing doses of AP±1 mM DFMO or with PLX4720. After 72 hours of culture, cell survival was determined via EZQuant™ Cell Quantifying assay. IC50 values were calculated by GraphPad Prism 6. […] Cells were washed with cold PBS containing 50 μM spermidine, and cell lysates were assayed for CPM ^3H-spermidine per mg protein by scintillation counting.

WM3451 melanoma cells = assay: Cell viability assay (EZQuant), WM3451; assay type: cell-based; settings: Homo sapiens; AP alone, 72 h, WM3451, BRAF WT
Protocol: as §1

WM983B melanoma cells = assay: Cell viability assay (EZQuant), WM983B; assay type: cell-based; settings: Homo sapiens, AP alone, 72 h
Protocol: as §1

[4] = tested on: 1205Lu melanoma monolayer cultures; assay: 2D monolayer culture viability (CellTiter-Glo); assay type: cell-based, human; settings: FIG. 10, 25 μM each drug, 48 h
Protocol: BRAF^V600E mutant 1205Lu melanoma cells were seeded at 1×10^4 cells in each well of the […] NCPs. When spheroids were formed on day 3, the 3D cultures of spheroids were treated with PLX4720 (25 μM) and/or AP (25 μM). 2D monolayer cultures of 1205Lu melanoma cells were also treated with PLX4720 (25 μM) and/or AP (25 μM). After drug treatment for 48 hours, the viability of spheroids and monolayer cultures was assayed using the CellTiter-Glo Luminescent Cell Viability Assay. The percent cell survival in each treatment group was calculated relative to cells treated with medium only under the same conditions. As controls, the growth of cells without drug treatment under each condition was normalized as 100% separately. The means are presented±SD.

B16F10-BRAF^V600E cells = assay: Cell viability assay, B16F10-BRAF V600E; settings: Mus musculus, read-out: IC50 (cytotoxicity)
Protocol: Cell proliferation assays were conducted in 96-well plates at 25-30% starting confluence to determine the effect of exposure to increasing concentrations of PLX4720 or AP with or without 1 mM DFMO for 72 hours. Cell viability was assessed using the EZQuant™ Cell Quantifying Kit (Alstem) in which WST-8 is reduced by the metabolic activity of live cells to formazan dye. For spheroids treated with PLX4720 and/or AP, viability of the spheroid cells was estimated by quantification of the ATP present using a CellTiter-Glo Luminescent Cell Viability Assay (Promega Co., Madison, Wis.). The 72 hour IC50 values for AP were calculated using non-linear regression (sigmoidal dose response) of the plot of percentage inhibition versus the log of inhibitor concentration in GraphPad Prism (v5; GraphPad Software, Inc., La Jolla, Calif.).

WM989 melanoma cells = assay: Cell viability assay (EZQuant), WM989; assay type: cell-based; settings: Homo sapiens; AP alone, 72 h, WM989, BRAF V600E
Protocol: as §1

B16F10 melanoma tumors = assay: B16F10 melanoma tumor model (Example 3); assay type: in vivo, C57Bl/6 mice
Protocol: C57Bl/6 mice were injected s.c. with 1.5×10^5 B16F10 melanoma cells. B16F10 melanoma cells are a poorly immunogenic, highly metastatic, and highly aggressive cancer cell line. When tumors were 40-80 mm^3 in size, AP (Formula (II)) treatment (i.p., 2 mg/kg every other day) was initiated. Some mice were also administered 0.25% DFMO (w/v) in the drinking water. Tumors were measured with calipers to determine tumor volume over 14 days of treatment (FIG. 12A). Splenocytes from mice treated with vehicle, DFMO, AP, or AP+DFMO were analyzed by flow cytometry for F4/80+CD206^+ M2 macrophages (FIG. 12B). Splenocytes were treated for 4 hours at 37° C. with ionomycin (500 ng/ml) and PMA (50 ng/ml) to stimulate T cells to produce IFNγ in the presence of Brefeldin A to block cytokine secretion. Cells were stained with anti-CD4 antibody in the presence of Brefeldin A, fixed, permeabilized and intracellularly stained with an anti-IFNγ antibody and analyzed by flow cytometry (FIG. 12C).

CNCNCNCc1ccc(CNCNCNC)c2ccccc12 [AP]
IC50 (WM3211 melanoma cells): 4.5 µM | IC50 (WM88 melanoma cells): 0.8 µM | PTS Activity (cpm ^3H Spd/μg Protein) ([1]; 1205Lu, column group AP (without DFMO)): 230 ± 22 cpm ^3H Spd/μg Protein | PTS Activity (cpm ^3H Spd/μg Protein) ([1]; WM88, column group AP (without DFMO)): 302 ± 18 cpm ^3H Spd/μg Protein | PTS Activity (cpm ^3H Spd/μg Protein) ([1]; WM983B, column group AP (without DFMO)): 487 ± 64 cpm ^3H Spd/μg Protein | PTS Activity (cpm ^3H Spd/μg Protein) ([1]; WM989, column group AP (without DFMO)): 304 ± 28 cpm ^3H Spd/μg Protein | PTS Activity (cpm ^3H Spd/μg Protein) ([1]; WM3211, column group AP (without DFMO)): 278 ± 58 cpm ^3H Spd/μg Protein | PTS Activity (cpm ^3H Spd/μg Protein) ([1]; WM3451, column group AP (without DFMO)): 130 ± 21 cpm ^3H Spd/μg Protein | PTS Activity (cpm ^3H Spd/μg Protein) ([1]; WM3734, column group AP (without DFMO)): 444 ± 46 cpm ^3H Spd/μg Protein | PTS Activity (cpm ^3H Spd/μg Protein) ([1]; WM3743, column group AP (without DFMO)): 117 ± 23 cpm ^3H Spd/μg Protein | regrowth of BRAF inhibitor-resistant tumor [2]: significantly retards the regrowth | IC50 (WM3743 melanoma cells): 8.9 µM | sensitivity to AP (IC50 compared to BRAF WT B16F10 cells) [3]: significantly more sensitive | IC50 (WM3451 melanoma cells): 9 µM | IC50 (WM983B melanoma cells; BRAF V600E, read-out: IC50 (μM AP)): 2.6 µM | IC50 (WM983B melanoma cells; FIG. 8C, read-out: IC50): 2.3 µM | cell viability of monolayer cultures [4]: similarly sensitive | IC50 (B16F10-BRAF^V600E cells): 24.4 µM | IC50 (WM989 melanoma cells): 1.2 µM | tumor growth (B16F10 melanoma tumors; FIG. 12A, AP alone, i.p. 2 mg/kg every other day, 14 days): inhibits tumor growth | CD206+ F4/80+ macrophages (splenocytes) (B16F10 melanoma tumors; FIG. 12B, AP alone): dramatically decreases | IFN-gamma-secreting T cells (B16F10 melanoma tumors; FIG. 12C, splenocytes stimulated with ionomycin and PMA): increasing
